Consider 29 compounds from PubChem BioAssay (NCI).

Several values for one entry are separate records, joined by “and”; a condition that tells them apart may be missing. Equal values may be shown once.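 48-hour exposure; five concentrations; linearly interpolated endpoints. GI50 is the concentration that inhibits growth by half. TGI: concentration producing complete growth inhibition.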 Some results are limits rather than exact numbers.

Holding throughout (experiment): NCI-60 cell line screen, 48 h
Assay [1] relates to SNB-19 CNS.
For assay [2], the system named is SK-MEL-2 melanoma.
Assay [3] relates to ACHN renal.
For assay [4], the system named is U251 CNS.
In assay [5] the test system is RPMI-8226 leukemia.
Assay [6] has as its system M14 melanoma.
The subject of assay [7] is UO-31 renal.
For assay [8], the system named is HOP-62 NSCLC.
Assay [9] deals with MDA-N.
In assay [10] the test system is K-562 leukemia.

As to `O=C(n1c(=O)n(-c2ccc([N+](=O)[O-])cc2)c(=O)n1C(=O)C(Cl)(Cl)Cl)C(Cl)(Cl)Cl`, the TGI in [1], in assay [2], in [3], in assay [4], in [5] and in [6] was above 100 µM each time. Also, the TGI in [7], in assay [8] and in assay [9] was above 100 µM each time.

For `Cc1cc(C(C)(C)C)c(OCCCN2CCOCC2)c(C(C)(C)C)c1`, the TGI in assay [1] was determined as 32.1 µM; in assay [2] it was 31.3 µM; in assay [3] it was 31.2 µM; in assay [4], 33.2 µM; in assay [5] it was 34.8 µM; in assay [6], 31.7 µM. For the same compound, the TGI in assay [7] came to 32.7 µM; in [8], 38.6 µM; in assay [10], 33.3 µM; in assay [9], 34 µM.

As for `NC(=S)N1N=C(c2ccc3c(c2)CCC3)CC1c1ccccc1` (stereo unspecified), the TGI in assay [1] was above 100 µM; in assay [2], 36.2 µM; in assay [3], above 100 µM; in [4], 63.5 µM; in [5], 51.7 µM; in assay [6], above 100 µM. For the same compound, the TGI is above 100 µM in assay [7], 87 µM in [8], above 100 µM in assay [10] and above 100 µM in assay [9].

On to `Cc1ccc(N=Nc2cc(=O)[nH]c(=O)[nH]2)cc1C`, for which the TGI in [1] was found to be 35.2 µM; in assay [3] it was 24.4 µM; in assay [4] it was 29.1 µM; in assay [5], 14 µM; in [6], 41.1 µM; in assay [7], 32.6 µM. Further, the TGI in assay [8] is 43.1 µM; in assay [10], above 100 µM; in assay [9], 24.7 µM.

For `CC1=C(C(=O)OC(C)C)C(c2cccc([N+](=O)[O-])c2)C(C(=O)OC(CO[N+](=O)[O-])CO[N+](=O)[O-])=C(C)N1` (stereo unspecified), the TGI in assay [1] was 24.6 µM; in assay [2] it was 5.61 µM; in assay [3] it was above 100 µM; in assay [4], 6.97 µM; in assay [5], 3.6 µM; in assay [6], 12.7 µM. Besides, the TGI in assay [7] was above 50.1 µM; in [8], 16.5 µM; in assay [10], above 100 µM; in [9], 8.71 µM.

In the case of `CCOC(=O)Cn1c(C)nc2nn(Cc3ccccc3)cc2c1=O`, the TGI in assay [1], in [2], in assay [3], in [4], in [6] and in assay [7] was above 100 µM each time. The TGI in assay [8], in assay [10] and in assay [9] was above 100 µM in each case.

As to `CN(NC(=O)/C(=C/C=C/c1ccccc1)NC(=O)c1ccccc1)C1=C(Cl)C(=O)[N+](c2ccccc2)=CC1`, the TGI in assay [1] is 80.2 µM; in assay [2], 70.9 µM; in assay [3] it was 81 µM; in [4] it was 40.2 µM; in assay [5] it was 63.2 µM; in [6] it was 40.2 µM. In addition, the TGI in assay [7] was above 100 µM; in [8], 51.5 µM; in assay [10], 49.9 µM; in assay [9] it was 37.5 µM.

Turning to `CCCCC[C@@H]1OC(=O)[C@@]2(CC3c4ccccc4C2c2ccccc23)[C@H]1C(=O)OC`, the TGI was above 100 µM in assay [1]; above 100 µM in assay [2]; above 100 µM in assay [3]; above 100 µM in assay [4]; 54.3 µM in assay [5]; above 100 µM in assay [6]. The TGI in [7], in assay [8], in [10] and in [9] was above 100 µM throughout.

`O=C(O)c1cc2c(cc1CC(Cc1ccccc1)C(=O)O)CCC2` (stereo unspecified): the TGI in assay [1], in assay [2], in assay [3], in assay [4], in [5] and in assay [6] was above 100 µM in each case. Besides, the TGI in [7], in assay [8], in assay [10] and in assay [9] was above 100 µM each time.

Take `O=C(NC(Cc1c[nH]c2ccccc12)C(=O)O)/C(=C/c1ccccc1)NC(=O)c1ccccc1` (stereo unspecified): the TGI in [1], in [2], in assay [3], in assay [4], in assay [5] and in assay [6] was above 100 µM in each case. In addition, the TGI in assay [7], in [8], in assay [10] and in [9] was above 100 µM throughout.

Consider `CCOc1cc(C=Nc2ccc(Oc3ccc(Cl)cc3)c(Cl)c2)ccc1O`, for which the TGI in assay [1] was 62.1 µM; in assay [2] it was 56.4 µM; in [3], above 100 µM; in assay [4], 44.4 µM; in [5] it was 82.8 µM; in assay [6], 77.6 µM. Also, the TGI was found to be 30.3 µM in assay [7], 45.6 µM in assay [8] and 61.7 µM in assay [9].

Consider `Oc1cc(Br)cc2cc(Br)cnc12`, for which the TGI was above 100 µM in [1]; 47.4 µM in assay [3]; 30.2 µM in assay [5]; 29.2 µM in assay [6]; 29.4 µM in assay [7]; above 100 µM in assay [8]. Further, the results for the TGI in assay [10] and in assay [9] were 94.2 µM and above 100 µM, respectively.

`Fc1ccccc1C1SCC2=Nc3ccccc3CN21` (stereo unspecified): the TGI in assay [1], in assay [2], in [3], in assay [4], in [5] and in [6] was above 100 µM in each case. Moreover, the TGI in [7], in assay [8], in [10] and in [9] was above 100 µM in each case.

As to `CC(=O)Oc1ccc(-c2c(OC(C)=O)c(OC(C)=O)c(-c3ccc(OC(C)=O)c(OC(C)=O)c3)c(OC(C)=O)c2OC(C)=O)cc1`, the TGI in [1] came to 32.6 µM; in assay [2], 29.9 µM; in assay [3], 30.8 µM; in assay [4] it was 36.5 µM; in assay [5], 35.4 µM; in assay [6], 33.7 µM. Further, the TGI in assay [7] turned out to be 28.8 µM; in assay [10], 43.5 µM; in [9], 31.5 µM.

`Cc1cn(C2CC(O)C(Cn3cc(Cn4nc(Br)c(=O)[nH]c4=O)nn3)O2)c(=O)[nH]c1=O` (stereo unspecified): the TGI in [1], in [2], in assay [3], in [4], in [5] and in assay [6] was above 100 µM throughout. The TGI in [7], in assay [8] and in [9] was above 100 µM in each case.

Regarding `O=C(O)C1(Cc2ccc3c(c2)CCC3)Cc2cc3c(cc2C1)CCC3`, the TGI in assay [1], in [2], in assay [3], in assay [4], in assay [5] and in assay [6] was above 100 µM in each case. Also, the TGI in [7], in assay [10] and in [9] was above 100 µM in each case.

In the case of `COC(=O)C[C@H]1[C@]2(C)C3=C(C)[C@H](c4ccoc4)CC3O[C@@H]2[C@@H]2OC(=O)[C@]3(C)CCC(=O)[C@@]1(C)[C@@H]23` (stereo partly specified), the TGI is above 100 µM in [2]; above 100 µM in assay [3]; above 100 µM in assay [4]; 50.1 µM in assay [5]; above 100 µM in assay [6]; above 100 µM in assay [7]. The TGI in [8], in [10] and in [9] was above 100 µM each time.

For the compound `Cc1ccc2c(=O)c3c(O)c4c(cc3n(C)c2c1)OC(C)(C)C=C4`, the TGI in [1], in [2], in [3], in assay [4], in assay [5] and in assay [6] was above 10 µM throughout. Also, the TGI in assay [8], in assay [10] and in assay [9] was above 10 µM throughout.

In the case of `CC(C)=CCC/C(C)=C/CCC1(C)C2COC(=O)C21` (stereo unspecified), the TGI in assay [1], in assay [2], in assay [3], in assay [4], in assay [7] and in assay [8] was above 100 µM each time. The results for the TGI in assay [10] and in assay [9] were 49.2 µM and above 100 µM, respectively.

With `COC(=O)[C@]12CCC(=O)N1[C@H](C(=O)O)Cc1c2[nH]c2ccccc12`, the TGI in assay [1], in [2], in assay [3], in assay [4], in assay [6] and in assay [7] was above 100 µM each time. For the same compound, the TGI in [8], in assay [10] and in [9] was above 100 µM each time.

With `Cc1ccc(Oc2cc(C)ccc2P(=O)(O)O)cc1`, the TGI in assay [1], in assay [2], in [5], in [6], in assay [7] and in [8] was above 100 µM throughout. For the same compound, the TGI in [10] and in assay [9] was above 100 µM in each case.

In the case of `Cc1cc2nnn(C3CCCO3)c2cc1C` (stereo unspecified), the TGI in assay [2], in [4], in [6], in assay [8], in assay [10] and in assay [9] was above 100 µM each time.

On to `CCCCN=C(OC1C=CCCC1)SC` (stereo unspecified), for which the TGI in assay [1], in [3], in assay [4], in [5], in assay [6] and in [7] was above 100 µM throughout. Moreover, the TGI in assay [8], in assay [10] and in assay [9] was above 100 µM throughout.

`CC(C)(C)OC(=O)N[C@@H](Cc1ccccc1)C(=O)N1CC[C@@H](C(=O)N2[C@H]3CC4CC[C@@]3(CS2(=O)=O)C4(C)C)N1`: the TGI in assay [1], in assay [2], in [3], in assay [4], in assay [5] and in assay [6] was above 100 µM each time. For the same compound, the TGI in [8], in assay [10] and in [9] was above 100 µM each time.

`CCn1c2ccccc2c2cc(NC(=O)c3c(C)[nH]c(=O)[nH]c3=S)ccc21`: the TGI in assay [1] is above 100 µM; in assay [2], above 100 µM; in assay [4], above 100 µM; in [5] it was above 100 µM; in [6] it was 82.2 µM; in [7], above 100 µM. The TGI in assay [8], in [10] and in assay [9] was above 100 µM in each case.

Regarding `O=c1oc2ccccc2cc1-c1nc2ccccc2s1`, the TGI in [2] was 60.2 µM; in assay [3], above 20.1 µM; in [4], 21.4 µM; in assay [5] it was above 85 µM; in assay [6] it was above 47.6 µM; in [7], 17.6 µM. The results for the TGI in [8] and in [9] were 17.8 µM and above 61.1 µM, respectively.

Turning to `COc1cccc(C2c3cc4c(cc3OC(N3CCOCC3)C2C)OCO4)c1` (stereo unspecified), the TGI in [1] is above 100 µM; in [2], 83.6 µM; in assay [3], above 100 µM; in [5] it was above 100 µM; in assay [6], 71 µM; in [7], 43.4 µM. Moreover, the TGI is 60.8 µM in assay [8], above 100 µM in [10] and 10.7 µM in assay [9].

Turning to `COc1ccc(C2=C(N)c3ccccc3C2=O)cc1`, the TGI was 64.3 µM in [1]; above 100 µM in [2]; above 100 µM in assay [3]; above 100 µM in assay [4]; above 100 µM in assay [5]; above 100 µM in assay [6]. In addition, the TGI in assay [8] and in assay [9] was above 100 µM throughout.

Consider `Nc1ncnc2c(C3OC(CO)C(O)C3O)c[nH]c12` (stereo unspecified), for which the TGI in [1] was 8.69 µM; in assay [2], 0.0101 µM and < 0.0304 µM; in assay [6], 0.336 µM and 0.225 µM; in [7], 0.118 µM and 0.258 µM; in assay [8], 0.342 µM and 0.0897 µM; in assay [10], 0.116 µM and 0.0193 µM. The TGI in assay [9] is 0.158 µM and 0.138 µM. The GI50 in assay [2] was 0.00179 µM; in assay [8], 0.0136 µM.
